The results in this text go back to article PMC5440000 (Clinical Interventions in Aging, 2017).

What is called IC50 is the concentration that inhibits the measured activity by half. A higher IC50 goes with lower potency.

For the test, the target named is Aβ42 (Homo sapiens, UniProt P05067). Description: Thioflavin T aggregation assay, […] h at […]°C. The class given is biochemical.
Sequence of Aβ42 (P05067 672-713): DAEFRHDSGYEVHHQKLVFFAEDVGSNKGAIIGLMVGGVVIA

Turning to `CC1=C(/C=C/C(C)=C/C=C/C(C)=C/C=C/C=C(C)/C=C/C=C(C)/C=C/C(=O)[C@]2(C)C[C@@H](O)CC2(C)C)C(C)(C)CCC1` [cryptocapsin], half-maximal inhibition (IC50) was put at 1970 nM.

Compound `CC1=C(/C=C/C(C)=C/C=C/C(C)=C/C=C/C=C(C)/C=C/C=C(C)/C=C/C2=C(C)C[C@@H](O)CC2(C)C)C(C)(C)C[C@H](O)C1` [zeaxanthin] had a half-maximal inhibitory concentration (IC50) of 2290 nM. This IC50 and that of the compound before are within 1.5-fold of each other.
